From patent publication US12240857B2 (priority 2017, dated 2025)
Like-named read-outs stand apart in the source and are kept apart here.

Legend:
[1] = tested on: EBOV mucin-domain-deleted glycoprotein pseudotyped VSV; assay: microbe, parasite or virus in culture; format: cell-based, Zaire ebolavirus; conditions: Zaire ebolavirus, Vero, read-out: EC50 EBOV
[2] = tested on: BDBV mucin-domain-deleted glycoprotein pseudotyped VSV; assay: microbe, parasite or virus in culture; format: cell-based, Bundibugyo ebolavirus; conditions: Vesicular stomatitis virus, Vero, read-out: EC50 BDBV
[3] = in vitro; conditions: African green monkey, CC50

SMILES	EC50 [1] [nM]	EC50 [2] [nM]	CC50 [3] [nM]	EC50 ([1]; 24 h) [nM]	EC50 ([2]; 24 h) [nM]
C[C@@H]1CN(C(=O)C23CC4CC(C)(C2)CC(c2ccccc2)(C4)C3)C[C@H](C)N1 (stereo partly drawn) [Example A86]	155	180	3900	–	–
CN1CCN(CC(O)COc2ccc(C34CC5CC(CC(C5)C3)C4)cc2)CC1 (stereo not drawn) [Example D28, 1-[4-(adamantan-1-yl)phenoxy]-3-(4-methylpiperazin-1-yl)propan-2-ol]	–	–	4200	150	210
CN1CCN(C(=O)C23CC4CC(C2)CC(c2ccccc2)(C4)C3)CC1 [Example A25]	450	190	> 10000	–	–
CC12CC3CC(C(=O)NC4CNC4)(C1)CC(c1ccccc1)(C3)C2 (stereo not drawn) [Example A72]	280	290	17400	–	–
N[C@H]1CC[C@H](C(=O)NC23CC4CC(C2)CC(c2ccccc2)(C4)C3)CC1 [Example E5, trans-4-amino-N-(3-phenyladamantan-1-yl)cyclohexane-1-carboxamide]	680	230	13300	–	–
CC1CCN(C[C@H](O)COCC23CC4CC(C2)CC(c2ccccc2)(C4)C3)CC1 [Example C10, (2S)-1-(4-methylpiperidin-1-yl)-3-[(3-phenyladamantan-1-yl)methoxy]propan-2-ol]	190	170	3600	–	–
COC(=O)c1ccc(COc2ccccc2CN2CCN(C(=O)CNC(=O)C34CC5CC(CC3C5)C4)CC2)cc1 [Example A5]	1400	3900	> 3000	–	–
CC(NC(=O)Cn1nnc(-c2ccco2)n1)C12CC3CC(CC(C3)C1)C2 (stereo not drawn) [Example D47, N-[1-(adamantan-1-yl)ethyl]-2-[5-(furan-2-yl)-2H-1,2,3,4-tetrazol-2-yl]acetamide]	–	–	> 10000	9300	5400
CCN(CC(O)COCCC12CC3CC(CC(C3)C1)C2)C1CCCCC1 (stereo not drawn) [Example D12, N-{3-[2-(adamantan-1-yl)ethoxy]-2-hydroxypropyl}-N-ethylcyclo hexanamine]	–	–	> 3000	610	490
CC(NC(=O)NCC(C)(C)N1CCOCC1)C12CC3CC(CC(C3)C1)C2 (stereo not drawn) [Example D45, 1-[1-(adamantan-1-yl)ethyl]-3-[2-methyl-2-(morpholin-4-yl)propyl]urea]	–	–	> 10000	6500	4600
CC12CC3CC(C(=O)NCc4ncc[nH]4)(C1)CC(c1ccccc1)(C3)C2 (stereo not drawn) [Example A202, N-(1H-imidazol-2-ylmethyl)-3-methyl-5-phenyladamantane-1-carboxamide]	590	960	41500	–	–
O=C(CNC(=O)C12CC3CC(C1)CC(c1ccccc1)(C3)C2)NC1CCN(Cc2ccccc2)CC1 [Example A6]	210	250	16800	–	–
[O-][S+](NC1CCNCC1)C12CC3CC(CC(C3)C1)C2 (stereo not drawn) [Example A204, N-(piperidin-4-yl)adamantane-1-sulfinamide]	> 1000	> 1000	> 100000	–	–
CN1CCN(CCCOc2ccc(C34CC5CC(CC(C5)C3)C4)cc2)CC1 [Example C6, 1-(3-(4-(adamantan-1-yl)phenoxy)propyl)-4-methylpiperazine]	120	640	3800	–	–
O=C(CNC(=O)C12CC3CC(C1)CC(c1ccccc1)(C3)C2)N1CCN(Cc2ccccc2)CC1 [Example A16]	110	350	12900	–	–
CCOCCN1CCN(CC23CC4CC(CC(C4)C2)C3)CC1 [Example D5, 1-(adamantan-1-ylmethyl)-4-(2-ethoxyethyl)piperazine]	–	–	> 10000	4600	1800
CN1CCC(N(C)C(=O)C23CC4CC(C2)CC(c2ccccc2)(C4)C3)CC1 [Example A27]	280	140	> 10000	–	–
COC(=O)C12CC3CC(C(=O)N[C@H]4CC[C@H](N)CC4)(C1)CC(c1ccccc1)(C3)C2 (stereo partly drawn) [Example A115]	980	> 1000	59000	–	–
CC12CC3CC(C)(C1)CC(c1ccc(OC[C@@H](O)CN4CCCCC4)cc1)(C3)C2 [Example D39, (2S)-1-[4-(3,5-dimethyladamantan-1-yl)phenoxy]-3-(piperidin-1-yl) propan-2-ol]	–	–	3200	120	250
CN(C)CCNC(=O)C12CC3CC(C)(C1)CC(c1ccccc1)(C3)C2 (stereo not drawn) [Example A46]	180	210	13500	–	–
O=C(N[C@H]1CCN(Cc2ccccc2)C1)C12CC3CC(C1)CC(c1ccccc1)(C3)C2 [Example A15]	1700	2600	> 10000	–	–
CC1CCN(C[C@@H](O)COc2ccc(C34CC5CC(CC(C5)C3)C4)cc2)CC1 [Example D23, (2R)-1-[4-(adamantan-1-yl)phenoxy]-3-(4-methylpiperidin-1-yl)propan-2-ol]	–	–	3900	60	77
O=C(N1CCC2(CCNC2)C1)C12CC3CC(C1)CC(c1ccccc1)(C3)C2 (stereo not drawn) [Example A64]	710	180	> 10000	–	–

SMILES	EC50 [1] [nM]	EC50 [2] [nM]	CC50 [3] [nM]	EC50 ([1]; 24 h) [nM]	EC50 ([2]; 24 h) [nM]
O=C(CC12CC3CC(CC(C3)C1)C2)NCC(=O)NC1CCN(Cc2ccccc2)CC1 [Example A54]	4000	10000	> 10000	–	–
COC(=O)c1ccc(COc2ccccc2CN2CC3CC2CN3C(=O)CNC(=O)CC23CC4CC(CC(C4)C2)C3)cc1 (stereo not drawn) [Example A58]	650	8000	> 10000	–	–
O=C(CC12CC3CC(CC(C3)C1)C2)N1CCC2(CCN(Cc3ccccc3)C2)C1 (stereo not drawn) [Example A50, 2-(Adamantan-1-yl)-1-{7-benzyl-2,7-diazaspiro[4.4]nonan-2-yl}ethan-1-one]	2900	3300	54900	–	–
N[C@H]1CC[C@H](NC(=O)CC2(c3ccccc3)C3CC4CC(C3)CC2C4)CC1 (stereo partly drawn) [Example A97]	340	250	100000	–	–
CC1CCN(CC(O)CCOc2ccc(C34CC5CC(CC(C5)C3)C4)cc2)CC1 (stereo not drawn) [Example C7, 4-(4-(adamantan-1-yl)phenoxy)-1-(4-methylpiperidin-1-yl)butan-2-ol]	470	770	4100	–	–
O=C(CC12CC3CC(C1)CC(c1ccccc1)(C3)C2)N1CCN(Cc2ccccc2)CC1 [Example A30]	340	220	7500	–	–
O=C(NC1CCNCC1)C12CC3CC1CC(c1ccccc1)(C3)C2 (stereo not drawn) [Example A88]	360	500	12500	–	–
O=C(N1CC2(CCN(Cc3ccccc3)C2)C1)C12CC3CC(C1)CC(c1ccccc1)(C3)C2 [Example A10]	240	210	6900	–	–
CC12CC3CC(C(=O)Nc4ccncc4)(C1)CC(c1ccccc1)(C3)C2 (stereo not drawn) [Example A201, 3-methyl-5-phenyl-N-(pyridin-4-yl)adamantane-1-carboxamide]	1100	> 1000	16400	–	–
O=C(CC12CC3CC(C1)CC(c1ccccc1)(C3)C2)NCC(=O)N1CCN(Cc2ccccc2)CC1 [Example A17]	930	480	> 10000	–	–
O=C(CC12CC3CC(C1)CC(c1ccccc1)(C3)C2)NCC(=O)NC1CCN(Cc2ccccc2)CC1 [Example A12]	360	430	2500	–	–
O=C(CC12CC3CC(C1)CC(c1ccccc1)(C3)C2)NC1CCN(Cc2ccccc2)CC1 [Example A32]	200	260	1600	–	–
O=C(N1CCN(Cc2ccccc2)CC1)C12CC3CC(CC1C3)C2 [Example A28]	> 10000	> 10000	> 10000	–	–
O=C(N1CCC(NCc2ccccc2)CC1)C12CC3CC(C1)CC(c1ccccc1)(C3)C2 [Example A49, N-Benzyl-1-[(3-phenyladamantan-1-yl)carbonyl]piperidin-4-amine]	210	290	10000	–	–
O=C(CNC(=O)C12CC3CC(C1)CC(c1ccccc1)(C3)C2)N[C@@H]1CCN(Cc2ccccc2)C1 [Example A7]	480	840	> 10000	–	–
CN1CCN(C[C@H](O)COc2ccc(C34CC5CC(CC(C5)C3)C4)cc2)CC1 [Example D27]	–	–	3500	130	190
C[C@H]1C[C@@H](NC(=O)C23CC4CC(C)(C2)CC(c2ccccc2)(C4)C3)CCN1 (stereo partly drawn) [Example A110]	21	190	17500	–	–
COC(=O)c1ccc(COc2ccccc2CN2CCN(C(=O)CNC(=O)C34CC5CC(C3)CC(c3ccccc3)(C5)C4)CC2)cc1 [Example A3]	30	1240	> 3000	–	–
Cc1ccc(C23CC4CC(CC(CN5CCCCC5)(C4)C2)C3)cc1 [Example D1]	–	–	> 10000	1300	610
CC1CCN(C[C@H](O)COCCC23CC4CC(C2)CC(c2ccccc2)(C4)C3)CC1 [Example C12, (2S)-1-(4-methylpiperidin-1-yl)-3-[2-(3-phenyladamantan-1-yl)ethoxy]propan-2-ol]	270	190	1200	–	–
O=C(CC12CC3CC(C1)CC(c1ccccc1)(C3)C2)NCC(=O)N[C@@H]1CCN(Cc2ccccc2)C1 [Example A13]	320	320	2300	–	–
O=C(NC1CCNCC1)NC12CC3CC(C1)CC(c1ccccc1)(C3)C2 [Example E1, 3-(3-phenyladamantan-1-yl)-1-(piperidin-4-yl)urea]	> 1000	770	18300	–	–
O=C(N1CC2CC1CN2Cc1ccccc1)C12CC3CC(C1)CC(c1ccccc1)(C3)C2 (stereo not drawn) [Example A20]	490	410	10600	–	–
